From patent US20260109732A1, “LIPID AMINES” (ModernaTX, Inc., priority 2021, published 2026)

Tests used:
[1] = Diameter and PDI from DLS measurements of mRNA nanoparticles with lipid amines; type: physicochemical
Method in brief: (§1)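 Ionizable lipid nanoparticles (IL1:DSPC:cholesterol:PEG-DMG-2K) formed by vortex mixing at pH 4, loaded with luciferase or CFTR mRNA at N:P 4.93, neutralized with TRIS pH 8.12, then modified with lipid amine SA50 at pH 7.5. Particle diameter and PDI read by DLS; mRNA encapsulation by Ribogreen assay.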

[2] = Encapsulation of mRNA nanoparticles with lipid amines using Ribogreen assay; type: physicochemical
Method in brief: as §1

HeLa cells [3] = experiment: Luciferase Protein Expression Assay in HeLa Cells; type: cell-based, Human; settings: LNPs encapsulating Luciferase mRNA, 25 ng per well, N=4 wells; 5 h serum-free then 24 h; ONE-Glo
Method in brief: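 HeLa cells received LNPs carrying luciferase mRNA (25 ng per well) or PBS in serum-free MEM for 5 h, then complete MEM for a further 24 h. Luciferase then read by ONE-Glo luminescence after lysis and reported as average RLU of 4 replicate wells.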

HeLa cells [4] = experiment: CFTR Protein Expression Assay in HeLa Cells; type: cell-based, Human; settings: LNPs encapsulating CFTR mRNA, N=4 wells; 5 h serum-free then 24 h; immunofluorescence vs PBS control
Method in brief: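 HeLa cells dosed with CFTR mRNA LNPs (70 mM NaCl final buffer matrix) in serum-free MEM for 5 h, then complete MEM for 24 h. Fixed cells immunostained with anti-CFTR monoclonal and Alexa 488 secondary, imaged confocally; CFTR intensity per cell expressed as fold-change versus PBS buffer control, N=4 wells.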

[5] = CFTR mRNA nanoparticle with lipid amine
[6] = Luciferase mRNA nanoparticle modified with lipid amine

Row | SMILES | Diameter (nm) [1, 5] | PDI [1, 5] | Diameter (nm) [1, 6] | PDI [1, 6] | % Encapsulation (Ribogreen) [2, 5] | % Encapsulation (Ribogreen) [2, 6] | Average Relative Light Units ± Standard Deviation (HeLa cells [3]) | Average fold-change in CFTR signal intensity per cell compared to buffer control ± standard deviation (HeLa cells [4])
1 | CC(C)CCC[C@@H](C)[C@H]1CC[C@H]2[C@@H]3CC=C4C[C@@H](OC(=O)N(CCCCNC(C)CC(C)N)C(C)CC(C)N)CC[C@]4(C)[C@H]3CC[C@]12C.Cl.Cl.Cl (stereo partly drawn) [SA126, (3S,8S,9S,10R,13R,14S,17R)-10,13-dimethyl-17-((R)-6-methylheptan-2-yl)-2,3,4,7,8,9,10,11,12,13,14,15,16,17-tetradecahydro-1H-cyclopenta[a]phenanthren-3-yl (4-aminopentan-2-yl)(4-((4-aminopentan-2-yl)amino)butyl)carbamate trihydrochloride] | 79.3 nm | 0.15 | 75 nm | 0.18 | 99.4% | 99.7% | 31706.7 ± 7386.3 Relative Light Units | 18.2 ± 2.0 fold-change
2 | CCC(N)CCNCCCCN(CCC(N)CC)C(=O)O[C@H]1CC[C@@]2(C)C(=CC[C@H]3[C@@H]4CC[C@H]([C@H](C)CCCC(C)C)[C@@]4(C)CC[C@@H]32)C1.Cl.Cl.Cl (stereo partly drawn) [SA127, (3S,8S,9S,10R,13R,14S,17R)-10,13-dimethyl-17-((R)-6-methylheptan-2-yl)-2,3,4,7,8,9,10,11,12,13,14,15,16,17-tetradecahydro-1H-cyclopenta[a]phenanthren-3-yl (3-aminopentyl)(4-((3-aminopentyl)amino)butyl)carbamate trihydrochloride] | 74.1 nm | 0.12 | 74 nm | 0.17 | 99.5% | 99.7% | 41246.9 ± 5672.4 Relative Light Units | 20.1 ± 1.9 fold-change
3 | CC(C)CCC[C@@H](C)[C@H]1CC[C@H]2[C@@H]3CC=C4C[C@@H](OC(=O)N(CCCCNCC5(CN)CC5)CC5(CN)CC5)CC[C@]4(C)[C@H]3CC[C@]12C.Cl.Cl.Cl [SA128, (3S,8S,9S,10R,13R,14S,17R)-10,13-dimethyl-17-((R)-6-methylheptan-2-yl)-2,3,4,7,8,9,10,11,12,13,14,15,16,17-tetradecahydro-1H-cyclopenta[a]phenanthren-3-yl ((1-(aminomethyl)cyclopropyl)methyl)(4-(((1-(aminomethyl)cyclopropyl)methyl)amino)butyl)carbamate trihydrochloride] | 74.5 nm | 0.13 | 75 nm | 0.16 | 99.4% | 99.4% | 39386.4 ± 5261.4 Relative Light Units | 19.9 ± 0.4 fold-change
4 | CC(C)CCC[C@@H](C)[C@H]1CC[C@H]2[C@@H]3CC=C4C[C@@H](OC(=O)CN(CCCCCCCCN)C(=O)[C@@H](N)CCCN)CC[C@]4(C)[C@H]3CC[C@]12C.Cl.Cl.Cl [SA129, (3S,8S,9S,10R,13R,14S,17R)-10,13-dimethyl-17-((R)-6-methylheptan-2-yl)-2,3,4,7,8,9,10,11,12,13,14,15,16,17-tetradecahydro-1H-cyclopenta[a]phenanthren-3-yl N-(8-aminooctyl)-N-((S)-2,5-diaminopentanoyl)glycinate trihydrochloride] | 81.6 nm | 0.12 | 70 nm | 0.16 | 96.2% | 99.5% | 144.8 ± 21.6 Relative Light Units | 1.0 ± 0 fold-change
5 | CC(C)CCC[C@@H](C)[C@H]1CC[C@H]2[C@@H]3CC=C4C[C@@H](OC(=O)[C@H](CCCCN)NCCCCCCN)CC[C@]4(C)[C@H]3CC[C@]12C.Cl.Cl.Cl [SA131, (3S,8S,9S,10R,13R,14S,17R)-10,13-dimethyl-17-((R)-6-methylheptan-2-yl)-2,3,4,7,8,9,10,11,12,13,14,15,16,17-tetradecahydro-1H-cyclopenta[a]phenanthren-3-yl (6-aminohexyl)-L-lysinate trihydrochloride] | 83.8 nm | 0.14 | 72 nm | 0.12 | 98.6% | 99.6% | 40915.5 ± 4983.3 Relative Light Units | 10.8 ± 0.5 fold-change
6 | CC(C)CCC[C@@H](C)[C@H]1CC[C@H]2[C@@H]3CC=C4C[C@@H](OC(=O)[C@H](CCCN)NCCCCCCN)CC[C@]4(C)[C@H]3CC[C@]12C.Cl.Cl.Cl [SA132, (3S,8S,9S,10R,13R,14S,17R)-10,13-dimethyl-17-((R)-6-methylheptan-2-yl)-2,3,4,7,8,9,10,11,12,13,14,15,16,17-tetradecahydro-1H-cyclopenta[a]phenanthren-3-yl (S)-5-amino-2-((6-aminohexyl)amino)pentanoate trihydrochloride] | 84.2 nm | 0.15 | 81 nm | 0.41 | 96.8% | 99.3% | 131.6 ± 15.5 Relative Light Units | 1.6 ± 0.1 fold-change
7 | CCC(N)(CC)CCNCCCCN(CCC(N)(CC)CC)C(=O)O[C@H]1CC[C@@]2(C)C(=CC[C@H]3[C@@H]4CC[C@H]([C@H](C)CCCC(C)C)[C@@]4(C)CC[C@@H]32)C1.Cl.Cl.Cl [SA133, (3S,8S,9S,10R,13R,14S,17R)-10,13-dimethyl-17-((R)-6-methylheptan-2-yl)-2,3,4,7,8,9,10,11,12,13,14,15,16,17-tetradecahydro-1H-cyclopenta[a]phenanthren-3-yl (3-amino-3-ethylpentyl)(4-((3-amino-3-ethylpentyl)amino)butyl)carbamate trihydrochloride] | 73.5 nm | 0.11 | 73 nm | 0.17 | 99.4% | 99.0% | 26696.2 ± 5831.4 Relative Light Units | 18.5 ± 0.8 fold-change
8 | CC(C)CCC[C@@H](C)[C@H]1CC[C@H]2[C@@H]3CC=C4C[C@@H](OC(=O)CCCC(=O)N(CCCN)CCCCCCCCN)CC[C@]4(C)[C@H]3CC[C@]12C.Cl.Cl [SA134, (3S,8S,9S,10R,13R,14S,17R)-10,13-dimethyl-17-((R)-6-methylheptan-2-yl)-2,3,4,7,8,9,10,11,12,13,14,15,16,17-tetradecahydro-1H-cyclopenta[a]phenanthren-3-yl 5-((8-aminooctyl)(3-aminopropyl)amino)-5-oxopentanoate dihydrochloride] | 74.1 nm | 0.10 | 72 nm | 0.13 | 98.7% | 99.5% | 29194.3 ± 6336.9 Relative Light Units | 17.7 ± 0.9 fold-change
9 | CC[C@H](CC[C@@H](C)[C@H]1CC[C@H]2[C@@H]3CC=C4C[C@@H](OC(=O)CCCC(=O)N(CCCN)CCCCCCCCN)CC[C@]4(C)[C@H]3CC[C@]12C)C(C)C.Cl.Cl [SA135, (3S,8S,9S,10R,13R,14S,17R)-17-((2R,5R)-5-ethyl-6-methylheptan-2-yl)-10,13-dimethyl-2,3,4,7,8,9,10,11,12,13,14,15,16,17-tetradecahydro-1H-cyclopenta[a]phenanthren-3-yl 5-((8-aminooctyl)(3-aminopropyl)amino)-5-oxopentanoate dihydrochloride] | 73.5 nm | 0.11 | 71 nm | 0.12 | 98.0% | 99.3% | 27499.8 ± 7269.5 Relative Light Units | 16.6 ± 1.5 fold-change
10 | CC[C@H](CC[C@@H](C)[C@H]1CC[C@H]2[C@@H]3CC=C4C[C@@H](OC(=O)CCCC(=O)N(CCCCNCCC(C)N)CCC(C)N)CC[C@]4(C)[C@H]3CC[C@]12C)C(C)C.Cl.Cl.Cl (stereo partly drawn) [SA136, (3S,8S,9S,10R,13R,14S,17R)-17-((2R,5R)-5-ethyl-6-methylheptan-2-yl)-10,13-dimethyl-2,3,4,7,8,9,10,11,12,13,14,15,16,17-tetradecahydro-1H-cyclopenta[a]phenanthren-3-yl 5-((3-aminobutyl)(4-((3-aminobutyl)amino)butyl)amino)-5-oxopentanoate trihydrochloride] | 76.9 nm | 0.13 | 75 nm | 0.16 | 97.7% | 99.7% | 16245.8 ± 6554.6 Relative Light Units | 15.8 ± 1.4 fold-change
